Tests used:
HIV derived RRE RNA = assay: heterologous hybridization inhibition assay with RRE RNA; assay type: binding; settings: radiolabeled RRE RNA, rRNA competitor
HBV εRNA = assay: εRNA/oligonucleotide hybridization inhibition assay with rRNA competitor; assay type: binding, Hepatitis B virus; settings: for IC50 / HBV + rRNA IC50 (μM): radiolabeled εRNA, 60-fold excess rRNA competitor; for Specificity: ratio RRE+rRNA IC50/εRNA+rRNA IC50, max = inactive in RRE assay
Outline: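 Inhibition of hybridization between 25 nM [32P]-εRNA and 100 nM biotinylated complementary oligonucleotide (50 mM Tris-HCl pH 7.5, 200 mM KCl, 5 mM MgCl2, 60 min, 25 °C), hybrids captured by streptavidin filter and counted. Titrations 0.1-200 μM with 60-fold excess rRNA; specificity = RRE+rRNA IC50/εRNA+rRNA IC50.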

SMILES | RRE + rRNA IC50 (μM) (HIV derived RRE RNA) | IC50 (HBV εRNA) | Specificity (HBV εRNA) | HBV + rRNA IC50 (μM) (HBV εRNA) | IC50 (HIV derived RRE RNA)
CNc1nc(NN=Cc2cc(Cl)ccc2O)nc(Nc2ccccc2)n1 [Compound 245] | inactive | 8.1 µM | max. | – | –
Oc1ccc(Br)cc1C=NNc1nc(Nc2cccc(C(F)(F)F)c2)nc(N2CCOCC2)n1 [Compound 246] | inactive | 5.6 µM | max. | – | –
FC(F)(F)c1cccc(Nc2nc(Nc3cccc(Cl)c3)nc(N3CCOCC3)n2)c1 [Compound 247] | inactive | 6.7 µM | max. | – | –
Cc1ccc(Nc2nc(NCc3cc(F)ccc3F)nc(Nc3ccc([N+](=O)[O-])cc3)n2)cc1C [Compound 248] | inactive | – | – | inactive | –
Cc1ccc(Nc2nc(NN=Cc3ccc(Cl)cc3)nc(N3CCOCC3)n2)cc1 [Compound 249] | inactive | 47.2 µM | max. | – | –
Cc1ccc(Nc2nc(NNC(=O)c3ccccc3O)nc(Oc3ccc([N+](=O)[O-])cc3)n2)cc1C [Compound 250] | inactive | – | – | inactive | –
Cc1ccc(Nc2nc(Nc3cccc(C(F)(F)F)c3)nc(N3CCOCC3)n2)cc1C [Compound 251] | inactive | 45 µM | max. | – | –
COc1ccc(Nc2nc(NCCc3ccccc3)nc(N(C)C)n2)cc1OC [Compound 252] | inactive | – | – | inactive | –
CNc1nc(NN=Cc2ccccc2C(F)(F)F)nc(Nc2cccc(C(F)(F)F)c2)n1 [Compound 253] | – | 11 µM | 59.9 | – | 659 µM
